Assay results as given in a melting point compilation (Tetko et al.; mined from patent text by program, amines drawn as free bases though some values may be those of a salt).

Row | melting point [°C] | Compound
1 | 175 | CC(C)(C)OC(=O)N1CCC(Nc2nccc(-c3c(-c4ccc(F)cc4)nc4occn34)n2)CC1
2 | 172 | CC(C)c1n[nH]c(=O)n1N
3 | 105 | CCCCCCCNC(=O)N(C)c1cccc(-c2ccc(CC(Nc3ccccc3C(=O)c3ccccc3)C(=O)O)cc2)c1 (stereo unspecified)
4 | 125 | Cc1nn(-c2cnccn2)c(-c2ccccc2)c1CC(=O)O
5 | 180 | Nc1nc2ccc(OC(F)(F)F)c([N+](=O)[O-])c2s1
6 | 146 to 148 | Cc1nc(-c2ccccc2)nc(-c2ccc([N+](=O)[O-])cc2)c1C(C)O (stereo unspecified)
7 | 132 to 134 | CN(c1cc(OCC(=O)O)cc2cc(C3=NCC(CN4CCSCC4)S3)[nH]c12)S(=O)(=O)c1ccccn1 (stereo unspecified)
8 | 139 to 140 | O=C(NCCOc1ccc(CC(Oc2ccc(F)cc2)C(=O)O)cc1)c1ccc(-c2ccccn2)cc1 (stereo unspecified)
9 | 198 | CCn1cc(C(=O)O)c(=O)c2cc(F)c(N3CCNC(c4ccco4)C3)cc21 (stereo unspecified)
10 | 117 to 118 | COc1ccc(-c2ccc(C(C)=O)cc2)cc1OC1CCCC1
11 | 23.5 | CCCCCCCCc1cnc(-c2ccc(F)cc2)nc1
12 | 69 to 70 | Cc1nn(-c2ccccc2)c(C)c1CC#N
13 | 113 to 114 | CCOCCOCCOCC1(c2ccc(Oc3cncc4sc(-c5nnc(N)o5)cc34)cc2)CC1
14 | 133 to 135 | CC1(C)OCC(N(c2nc(Cl)nc(N(C3COC(C)(C)OC3)C3COC(C)(C)OC3)n2)C2COC(C)(C)OC2)CO1
15 | 104 to 105 | CC[C@H](C)C(OCc1ccccc1)[C@@H]1[C@H]([N+](=O)[O-])[C@H](c2ccccc2)N[C@]1(C)C(=O)NCCC(=O)O (stereo partly specified)
16 | 240 to 244 | C=CCc1cc(C2=NNC(=O)CC2)ccc1O
17 | 116 to 122 | COC(=O)c1ccc(-c2ccc(OC)c3c2CC(C)(C)O3)cc1
18 | 57 to 58.5 | C1=CCC2=C(C1)CCc1ccccc1C2CCN1CCCC1 (stereo unspecified)
19 | 141 to 142 | Cc1ccc(-c2cc(F)c(F)cc2-c2ccc(S(C)(=O)=O)cc2)cn1

Further lines, the compound ahead of its results:

Row | Compound | melting point [°C]
20 | COCN1C(C)=C(C(=O)O)[C@H](c2cccc([N+](=O)[O-])c2)C(C(=O)OCOC(=O)C(C)(C)C)=C1C | 84 to 85
21 | Cn1c(=O)c2c(nc(Cl)n2Cc2ccc(F)cc2)n(C)c1=O | 183 to 184
22 | O=C(OCCN1C(=O)c2ccccc2C1=O)c1cccc2c(=O)c(OCCN3C(=O)c4ccccc4C3=O)c(-c3ccc(OCc4ccc5ccccc5n4)cc3)oc12 | 211 to 212
23 | Cc1ccc2oc(C=Cc3ccc(C(=O)O)cc3)cc(=O)c2c1 | 308 to 312
24 | CC(=NOCCOc1ccc(CC2SC(=O)N(C(c3ccccc3)(c3ccccc3)c3ccccc3)C2=O)cc1)c1ccc(-c2ccccc2)nc1 (stereo unspecified) | 186 to 187
25 | Cc1cccc(NC(=O)NCC(=O)N(CC(=O)OC(C)(C)C)c2ccccc2)c1 | 180
26 | OCc1c(Cl)nc(C2CCCCC2)n1Cc1ccccc1 | 160 to 161
27 | CCOc1nc(C(F)(F)F)cc(=O)n1-c1cc(C(=O)OC)c(Cl)cc1F | 96 to 98
28 | CCOC(=O)c1nc2scc(CN=[N+]=[N-])c2c(=O)[nH]1 | 192
29 | CC1(C)CC(=O)OC1CC(Cl)(Cl)Cl (stereo unspecified) | 56 to 58
30 | COC(=O)C[C@@H](CC(=O)C=Cc1c(-c2ccc(F)cc2)c(-c2ccccc2)c(C(=O)Nc2cccc(S(N)(=O)=O)c2)n1C(C)C)O[Si](C)(C)C(C)(C)C | 90 to 91
31 | FC(F)(F)c1cccnc1OCc1ccnc2cc(Cl)ccc12 | 125 to 127
32 | O=C1c2ccccc2-c2c1c1ccccc1c(=O)n2CCCNS(=O)(=O)c1ccccc1 | 216 to 218
33 | CC(=O)ON1C(C)(C)NC(=O)C1(C)C | 188 to 190
34 | OCC1(n2nc3ccccc3n2)OCC1c1ccccc1 (stereo unspecified) | 119 to 123
35 | Cc1ccc(C(=O)NNC(=O)c2ccccc2Cl)cc1 | 204 to 206
36 | Cc1cc(NC2=NCCN2C)n(C)n1 | 128 to 130
